Data published in patent publication US20250353853A1, “FLAVIVIRUS INHIBITORS” (IRBM S.P.A., priority 2022, published 2025).
Read-outs that look alike come from different tables or passages of the source.

Tests used:
[1] = biological target: West Nile Virus (WNV) NS2B-NS3 protease (West Nile virus (WNV), UniProt P06935); assay: WNV Protease Inhibition Assay; format: biochemical
Excerpt: WNV Protease Inhibition Assay

[2] = system: ZIKV replicon in Vero cells; assay: ZIKV Replication Inhibition Assay (replicon, NanoLuc); details: 72 h, read-out: Zika Replicon EC50
[3] = 2 nM protease, 10 μM pERTKR-AMC substrate, read-out: WNV Protease IC50

West Nile Virus (WNV) NS2B-NS3 protease, sequence (P06935 1502-1679 limits assumed): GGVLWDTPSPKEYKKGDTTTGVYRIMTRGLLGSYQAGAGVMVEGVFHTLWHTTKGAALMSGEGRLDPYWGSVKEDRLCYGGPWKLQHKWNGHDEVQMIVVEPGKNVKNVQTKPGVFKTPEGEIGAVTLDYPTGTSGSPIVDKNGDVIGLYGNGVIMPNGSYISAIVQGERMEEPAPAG
West Nile Virus (WNV) NS2B-NS3 protease, sequence (P06935 1371-1501 partner limits assumed): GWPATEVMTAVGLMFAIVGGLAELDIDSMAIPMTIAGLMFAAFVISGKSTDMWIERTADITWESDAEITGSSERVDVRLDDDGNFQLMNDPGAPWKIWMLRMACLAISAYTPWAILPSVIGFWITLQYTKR

Row | SMILES | IC50 [1, 3] | EC50 ([2]; Zika virus, Vero) | IC50 [1] | IC50 ([1]; read-out: WNV Protease IC50, 2 nM protease, 10 μM pERTKR-AMC substrate) | EC50 ([2]; Vero cell line with stable ZIKV replicon, Nano-Glo)
1 | O=C([N-]c1c[n+](Cc2ccc(-c3cncnc3C(F)(F)F)cn2)no1)Nc1ccnc(C(F)(F)F)c1 [Example 177, ((2-(trifluoromethyl)pyridin-4-yl)carbamoyl)(3-((5-(4-(trifluoromethyl)pyrimidin-5-yl)pyridin-2-yl)methyl)-1,2,3-oxadiazol-3-ium-5-yl)amide] | < 100 nM | 100 to 1000 nM | – | – | –
2 | Cc1cnn(C)c1-c1ccc(C[n+]2cc([N-]C(=O)Nc3cncc(C(F)(F)F)c3)on2)nc1 [Example 178, (3-((5-(1,4-dimethyl-1H-pyrazol-5-yl)pyridin-2-yl)methyl)-1,2,3-oxadiazol-3-ium-5-yl)((5-(trifluoromethyl)pyridin-3-yl)carbamoyl)amide] | – | < 100 nM | 100 to 1000 nM | – | –
3 | O=C([N-]c1c[n+](Cc2ccc(-c3cncnc3Cl)cn2)no1)Nc1cccc(C(F)(F)F)c1 [Example 179, (3-((5-(4-chloropyrimidin-5-yl)pyridin-2-yl)methyl)-1,2,3-oxadiazol-3-ium-5-yl)((3-(trifluoromethyl)phenyl)carbamoyl)amide] | < 100 nM | 1000 to 20000 nM | – | – | –
4 | O=C([N-]c1c[n+](Cc2ccc(-c3c(Cl)ncnc3Cl)cn2)no1)Nc1cccc(C(F)(F)F)c1 [Example 180, (3-((5-(4,6-dichloropyrimidin-5-yl)pyridin-2-yl)methyl)-1,2,3-oxadiazol-3-ium-5-yl)((3-(trifluoromethyl)phenyl)carbamoyl)amide] | < 100 nM | 1000 to 20000 nM | – | – | –
5 | COc1cc(-c2ccc(C[n+]3cc([N-]C(=O)Nc4cccc(C(F)(F)F)c4)on3)nc2)c(OC)nn1 [Example 181, (3-((5-(3,6-dimethoxypyridazin-4-yl)pyridin-2-yl)methyl)-1,2,3-oxadiazol-3-ium-5-yl)((3-(trifluoromethyl)phenyl)carbamoyl)amide] | – | < 100 nM | 100 to 1000 nM | – | –
6 | Cc1ncnc(C)c1-c1ccc(C[n+]2cc([N-]C(=O)Nc3cccc(C4CC4)c3)on2)nc1 [Example 182, ((3-cyclopropylphenyl)carbamoyl)(3-((5-(4,6-dimethylpyrimidin-5-yl)pyridin-2-yl)methyl)-1,2,3-oxadiazol-3-ium-5-yl)amide] | – | 100 to 1000 nM | 100 to 1000 nM | – | –
7 | Cc1ncnc(C)c1-c1cnc(C[n+]2cc([N-]C(=O)Nc3cccc(C(F)(F)F)c3)on2)nc1 [Example 183, (3-((4′,6′-dimethyl-[5,5′-bipyrimidin]-2-yl)methyl)-1,2,3-oxadiazol-3-ium-5-yl)((3-(trifluoromethyl)phenyl)carbamoyl)amide] | – | < 100 nM | 100 to 1000 nM | – | –
8 | Cc1ncnc(C)c1-c1ccc(C[n+]2cc([N-]C(=O)Nc3cccc(C(F)(F)F)c3)on2)nn1 [Example 184, (3-((6-(4,6-dimethylpyrimidin-5-yl)pyridazin-3-yl)methyl)-1,2,3-oxadiazol-3-ium-5-yl)((3-(trifluoromethyl)phenyl)carbamoyl)amide] | – | 100 to 1000 nM | 100 to 1000 nM | – | –
9 | Cc1ncnc(C)c1-c1ccc(C[n+]2cc([N-]C(=O)Nc3ccnc(C(F)(F)F)c3)on2)cc1 [Example 185, (3-(4-(4,6-dimethylpyrimidin-5-yl)benzyl)-1,2,3-oxadiazol-3-ium-5-yl)((2-(trifluoromethyl)pyridin-4-yl)carbamoyl)amide] | < 100 nM | < 100 nM | – | – | –
10 | Cc1noc(C)c1-c1ccc(C[n+]2cc([N-]C(=O)Nc3ccnc(C(F)(F)F)c3)on2)cc1 [Example 186, (3-(4-(3,5-dimethylisoxazol-4-yl)benzyl)-1,2,3-oxadiazol-3-ium-5-yl)((2-(trifluoromethyl)pyridin-4-yl)carbamoyl)amide] | < 100 nM | < 100 nM | – | – | –
11 | Cc1ncnc(C)c1-c1ccc(C[n+]2cc([N-]C(=O)Nc3cncc(C(F)(F)F)c3)on2)cc1 [Example 187, (3-(4-(4,6-dimethylpyrimidin-5-yl)benzyl)-1,2,3-oxadiazol-3-ium-5-yl)((5-(trifluoromethyl)pyridin-3-yl)carbamoyl)amide] | – | 1000 to 20000 nM | 100 to 1000 nM | – | –
12 | Cc1ncnc(C)c1-c1ccc([C@@H](C)[n+]2cc(NC(=O)Nc3ccnc(C(F)(F)F)c3)on2)cc1 [Example 188, (R)-(3-(1-(4-(4,6-dimethylpyrimidin-5-yl)phenyl)ethyl)-1,2,3-oxadiazol-3-ium-5-yl)((2-(trifluoromethyl)pyridin-4-yl)carbamoyl)amide] | – | < 100 nM | < 100 nM | – | –
13 | Cc1noc(C)c1-c1ccc([C@@H](C)[n+]2cc([N-]C(=O)Nc3ccnc(C(F)(F)F)c3)on2)cc1 [Example 189, (R)-(3-(1-(4-(3,5-dimethylisoxazol-4-yl)phenyl)ethyl)-1,2,3-oxadiazol-3-ium-5-yl)((2-(trifluoromethyl)pyridin-4-yl)carbamoyl)amide] | – | 100 to 1000 nM | 100 to 1000 nM | – | –
14 | Cc1ncnc(C)c1-c1ccc([C@H](C)[n+]2cc([N-]C(=O)Nc3ccnc(C(F)(F)F)c3)on2)cc1 [Example 190, (S)-(3-(1-(4-(4,6-dimethylpyrimidin-5-yl)phenyl)ethyl)-1,2,3-oxadiazol-3-ium-5-yl)((2-(trifluoromethyl)pyridin-4-yl)carbamoyl)amide] | – | 100 to 1000 nM | < 100 nM | – | –
15 | Cc1noc(C)c1-c1ccc([C@H](C)[n+]2cc([N-]C(=O)Nc3ccnc(C(F)(F)F)c3)on2)cc1 [Example 191, (S)-(3-(1-(4-(3,5-dimethylisoxazol-4-yl)phenyl)ethyl)-1,2,3-oxadiazol-3-ium-5-yl)((2-(trifluoromethyl)pyridin-4-yl)carbamoyl)amide] | – | – | – | 100 to 1000 nM | 100 to 1000 nM
